Publication PMC3376217 (2012)
Like-named read-outs stand apart in the source and are kept apart here.

How the values were obtained:
TOR2 [1] = biological target: T1, TOR2 (Saccharomyces cerevisiae, UniProt P32600); experiment: IP radiometric kinase assay on PHAS-I; assay type: biochemical
TOR2 [2] = biological target: T1, TOR2; experiment: IP radiometric kinase assay on PHAS-I; assay type: biochemical; remark: listed apart in the source

| IC50 (TOR2 [1]) [nM] | Structure (SMILES) | IC50 (TOR2 [2]) [nM] |
| --- | --- | --- |
| ~50 | Nc1ccc(-c2ccc3ncc4ccc(=O)n(-c5ccc(F)c(C(F)(F)F)c5)c4c3c2)cn1 [QL-IX-55] |  |
|  | CCC(=O)N1CCN(c2ccc(-n3c(=O)ccc4cnc5ccc(-c6cnc7ccccc7c6)cc5c43)cc2C(F)(F)F)CC1 [Torin1] | 250 to 500 |
